Laboratory results reported in US20040121994A1, “Novel amides that activate soluble guanylate cyclase” (priority 2002, published 2004).

Molecular target: T1, soluble guanylate cyclase (sGC), α1 and β1 subunits of guanylate cyclase expressed in Sf9 cells (Homo sapiens, UniProt Q02108+Q02153)
T1 construct: made in house; host or cells: Sf9 insect cells (baculovirus co-infection)
T1 sequence (Q02108 1-690): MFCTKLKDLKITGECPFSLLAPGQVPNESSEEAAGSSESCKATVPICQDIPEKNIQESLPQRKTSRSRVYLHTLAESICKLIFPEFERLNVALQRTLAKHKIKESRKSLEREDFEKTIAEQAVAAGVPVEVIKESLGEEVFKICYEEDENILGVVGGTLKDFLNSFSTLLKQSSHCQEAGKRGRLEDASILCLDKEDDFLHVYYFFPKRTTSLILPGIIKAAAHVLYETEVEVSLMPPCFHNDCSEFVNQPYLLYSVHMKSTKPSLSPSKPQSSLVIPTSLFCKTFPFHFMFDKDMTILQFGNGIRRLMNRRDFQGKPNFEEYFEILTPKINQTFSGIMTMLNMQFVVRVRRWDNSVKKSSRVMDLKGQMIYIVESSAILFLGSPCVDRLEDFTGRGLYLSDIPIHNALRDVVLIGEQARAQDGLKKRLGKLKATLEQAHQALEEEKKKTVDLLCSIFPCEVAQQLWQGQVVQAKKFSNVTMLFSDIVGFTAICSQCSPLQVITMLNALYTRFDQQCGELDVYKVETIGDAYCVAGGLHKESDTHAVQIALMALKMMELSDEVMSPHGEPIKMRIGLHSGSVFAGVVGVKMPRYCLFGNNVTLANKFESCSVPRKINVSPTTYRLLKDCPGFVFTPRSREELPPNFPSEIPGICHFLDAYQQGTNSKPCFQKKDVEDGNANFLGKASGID
T1 sequence (Q02153 1-619): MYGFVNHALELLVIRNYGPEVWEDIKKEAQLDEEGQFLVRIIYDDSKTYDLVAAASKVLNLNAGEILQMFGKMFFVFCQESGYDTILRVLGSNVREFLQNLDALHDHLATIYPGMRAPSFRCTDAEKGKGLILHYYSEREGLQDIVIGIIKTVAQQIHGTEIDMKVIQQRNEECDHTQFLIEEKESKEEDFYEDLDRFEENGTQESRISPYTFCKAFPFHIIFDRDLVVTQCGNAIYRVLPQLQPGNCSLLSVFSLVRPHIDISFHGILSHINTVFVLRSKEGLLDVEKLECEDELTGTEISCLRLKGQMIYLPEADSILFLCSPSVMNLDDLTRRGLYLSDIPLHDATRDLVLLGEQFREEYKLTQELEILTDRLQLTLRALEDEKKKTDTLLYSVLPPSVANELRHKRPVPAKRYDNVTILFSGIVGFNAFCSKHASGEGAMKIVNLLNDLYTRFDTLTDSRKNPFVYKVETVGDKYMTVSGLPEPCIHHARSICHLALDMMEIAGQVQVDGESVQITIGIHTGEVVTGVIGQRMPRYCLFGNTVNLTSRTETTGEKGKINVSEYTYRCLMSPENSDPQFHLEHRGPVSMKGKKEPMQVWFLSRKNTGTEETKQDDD
Assay: Guanylate cyclase assay (formation of cyclic GMP from GTP)
Type: biochemical
Settings: for Mean activation at 100 μM: (activity of compound at 100 μM with 1 μM SNP)−(activity of compound at 100 μM)/(activity of SNP at 1 μM)−(basal activity of sGC); for Mean efficacy of compound combined with 1 μM of SNP, [%]: compound at 100 μM with 1 μM sodium nitro prusside (SNP); for Emax at 100 µM: read-out: Mean basal efficacy of compound alone at 100 μM, [%]
Protocol: Sf9 cells were cultured in Sf-90011 medium supplemented with 10% (v/v) fetal calf serum at 28° C. to give a count of 6×10^5 cells/ml. The cells were then infected with a mixture of the virus stocks for the α1 and β1 subunits of guanylate cyclase at a multiplicity of infection of 0.1 pfu/cell. The cells were harvested 72 hours after infection and were pelleted by centrifugation. The resulting cell pellets were homogenized with Polytron homogenizer in 3 volumes of 20 mM Tris-HCl (pH 7.6) containing 1 mM EDTA, 5 mM dithiothreitol, 90 mM NaCl, 10% glycerol, and protease inhibitors mix (Roche Molecular Biochemicals). The homogenate was centrifuged at 50,000×g for 60 minutes and the supernatant was aliquotted and stored at −80° C.
Compounds of the present invention were dissolved in DMSO to make 100 mM and saved as stocks at −20° C. When compounds were tested, prepared 10-fold concentrated solutions with 10% DMSO. Then added 10 μl of 10-fold concentrated compound solutions to the reaction mixture of total 100 μl.
Guanylate cyclase activity was measured by the formation of cyclic GMP from GTP in a total volume of 100 μl. Guanylate cyclase-expressed Sf9 cell high-speed supernatant was used as an enzyme source for the assay. The reaction mixture containing 0.1 μl enzyme (Sf9 high-speed sup), compound solution, 50 mM Tris-HCl (pH 7.6), 4 mM MgCl2, 0.5 mM IBMX, 15 mM creatine phosphate, 20 μg creatine phosphokinase, 0.1% BSA and 1 mM GTP was incubated at 37° C. for 15 minutes. After the reaction, 0.9 ml of 50 mM sodium acetate buffer (pH 5.8) was added followed by boiling for 3 minutes to stop the reaction. The solution was centrifuged at 3000 rpm for 15 minutes at room temperature and cyclic GMP in 20 μl of the resulting supernatant was measured according to the protocol of Amersham cyclic GMP enzymeimmunoassay system (purchased from Sigma, catalogue number RPN 226).
Compounds of the present invention were tested at 100 μM with and without 1 μM sodium nitro prusside (SNP). 1-Benzyl-3-hydroxymethyl-2-furylindazole (YC-1) was included as a standard for each assay. The data was normalized with the activity of 100 μM YC-1 (without SNP) as 100%. Mean basal efficacy, in Table 1, was expressed as a percentage of 100 μM YC-1 (without SNP).
The mean activation, in Table 1, was calculated based on the formula: (activity of compound of the present invention at 100 μM with 1 μM SNP)−(activity of compound of the present invention at 100 μM)/(activity of SNP at 1 μM)−(basal activity of sGC).

[1] = normalized with the activity of 100 μM YC-1 (without SNP) as 100%
[2] = compound at 100 μM without SNP, normalized with the activity of 100 μM YC-1 (without SNP) as 100%

Row | SMILES | Mean activation at 100 μM | Mean efficacy of compound combined with 1 μM of SNP, [%] [1] [%] | Emax at 100 µM [2] [%] | Mean basal efficacy of compound alone at 100 μM, [%] [2] [%]
1 | CCNC(=O)/C=C/c1ccccc1Sc1ccc(Cl)cc1 [Example 32, (2E)-3-{2-[(4-chlorophenyl)thio]phenyl}-N-ethylacrylamide] | 10.5 | 78 | 27 | 
2 | CC(C)Sc1ccccc1/C=C/C(=O)NC1CCC(O)CC1 (stereo not drawn) [Example 24, (2E)-N-(4-hydroxycyclohexyl)-3-[2-(isopropylthio)phenyl]acrylamide] | 1.6 | 17 | 4 | 
3 | Cc1ccc(Sc2ncccc2/C=C/C(=O)NC2CCC(O)CC2)cc1 (stereo not drawn) [Example 15, (2E)-N-(4-hydroxycyclohexyl)-3-{2-[(4-methylphenyl)thio]-3-pyridinyl}acrylamide] | 4.7 | 204 | 126 | 
4 | CC(CCCC(C)(C)O)NC(=O)CCc1ccccc1Sc1ccc(Cl)cc1 (stereo not drawn) [Example 2, 3-{2-[(4-chlorophenyl)thio]phenyl}-N-(5-hydroxy-1,5-dimethylhexyl)propanamide] | 2.6 | 84 | 9 | 
5 | CC(CC(=O)N(C)C1CCN(C)CC1)c1ccccc1Sc1ccc(Cl)cc1 (stereo not drawn) [Example 10, 3-{2-[(4-chlorophenyl)thio]phenyl}-N-methyl-N-(1-methyl-4-piperidinyl)butanamide] | 1.6 | 7 | 0 | 
6 | CNCCCCCNC(=O)CCc1ccccc1Sc1ccc(Cl)cc1 [Example 14, 3-{2-[(4-chlorophenyl)thio]phenyl}-N-[5-(methylamino)pentyl]propanamide] | 4.4 | 124 | 30 | 
7 | O=C(/C=C/c1ccccc1Sc1ccc(Cl)cc1)NCCCCO [Example 34, (2E)-3-{2-[(4-chlorophenyl)thio]phenyl}-N-(4-hydroxybutyl)acrylamide] | 6.9 | 219 | 113 | 
8 | O=C(/C=C/c1ccccc1SC1CCCCC1)NC1CCC(O)CC1 (stereo not drawn) [Example 26, (2E)-3-[2-(cyclohexylthio)phenyl]-N-(4-hydroxycyclohexyl)acrylamide] | 7.9 | 506 | 353 | 
9 | O=C(CCc1cccc(F)c1Sc1ccc(Cl)cc1)NCCCCO [Example 7, 3-{2-[(4-chlorophenyl)thio]-3-fluorophenyl}-N-(4-hydroxybutyl)propanamide] | 3.8 | 80 | 19 | 
10 | O=C(/C=C/c1ccccc1SC1CCCC1)NC1CCC(O)CC1 (stereo not drawn) [Example 25, (2E)-3-[2-(cyclopentylthio)phenyl]-N-(4-hydroxycyclohexyl)acrylamide] | 9.5 | 430 | 242 | 
11 | CC(C)CSc1ccccc1/C=C/C(=O)NC1CCCCC1O (stereo not drawn) [Example 21, (2E)-N-(2-hydroxycyclohexyl)-3-[2-(isobutylthio)phenyl]acrylamide] | 4.1 | 106 | 45 | 
12 | CCCCNC(=O)/C=C/c1ccccc1Sc1ccc(Cl)cc1 [Example 33, (2E)-N-butyl-3-{2-[(4-chlorophenyl)thio]phenyl}acrylamide] | 6.9 | 38 | 7 | 

The remaining lines, values ahead:

Row | Mean activation at 100 μM | Mean efficacy of compound combined with 1 μM of SNP, [%] [1] [%] | Emax at 100 µM [2] [%] | Mean basal efficacy of compound alone at 100 μM, [%] [2] [%] | SMILES
13 | 8.3 | 276 | 169 |  | CC(C)CCSc1ccccc1/C=C/C(=O)NC1CCCCC1O (stereo not drawn) [Example 56, (2E)-N-(2-hydroxycyclohexyl)-3-{2-[(3-methylbutyl)thio]phenyl}acrylamide]
14 | 6.3 | 366 | 100 |  | O=C(/C=C/c1ccccc1Sc1ccc(Cl)cc1)NC1CCCCC1O (stereo not drawn) [Example 40, (2E)-3-{2-[(4-chlorophenyl)thio]phenyl}-N-(2-hydroxycyclohexyl)acrylamide]
15 | 2.7 | 224 |  | 100 | OCc1ccc(-c2nn(Cc3ccccc3)c3ccccc23)o1 [YC-1, 1-Benzyl-3-hydroxymethyl-2-furylindazole, reference compound]
16 | 8.4 | 221 | 162 |  | CC(C)CCSc1ccccc1/C=C/C(=O)NCCCCCO [Example 59, (2E)-N-(5-hydroxypentyl)-3-{2-[(3-methylbutyl)thio]phenyl}acrylamide]
17 | 13.0 | 186 | 85 |  | O=C(/C=C/c1cc(F)ccc1Sc1ccc(Cl)cc1)NCCCCO [Example 54, (2E)-3-{2-[(4-chlorophenyl)thio]-5-fluorophenyl}-N-(4-hydroxybutyl)acrylamide]
18 | 4.6 | 102 | 20 |  | COc1cccc(Sc2ccccc2/C=C/C(=O)NC2CCCCC2O)c1 (stereo not drawn) [Example 48, (2E)-N-(2-hydroxycyclohexyl)-3-{2-[(3-methoxyphenyl)thio]phenyl}acrylamide]
19 | 7.8 | 307 | 215 |  | CC(C)CCSc1ccccc1/C=C/C(=O)NCCCCO [Example 58, (2E)-N-(4-hydroxybutyl)-3-{2-[(3-methylbutyl)thio]phenyl}acrylamide]
20 | 3.7 | 79 | 15 |  | COc1ccc(Sc2ccccc2/C=C/C(=O)NC2CCCCC2O)cc1 (stereo not drawn) [Example 49, (2E)-N-(2-hydroxycyclohexyl)-3-{2-[(4-methoxyphenyl)thio]phenyl}acrylamide]
